These results are taken from DBAASP.

Molecules are shown by their SMILES. In brackets after ≈: the same amount, converted by molar mass.

What all share (experiment): ≥ marks a high value that may be exact or a test limit, other limits are often not marked, values filed in µg/mL are converted to µM
Assay [1] relates to Escherichia coli ATCC 25922.
The test system of assay [2] is Staphylococcus aureus ATCC 29213.
For assay [3], the system named is Pseudomonas aeruginosa ATCC 27853.
For assay [4], the system named is Staphylococcus aureus ATCC 25923.
A further assay concerns Escherichia coli.

The MIC is the least concentration at which growth counts as inhibited. Read a high MIC as a need for much substance. Take `CC[C@H](C)[C@H](NC(=O)[C@H](CCCN=C(N)N)NC(=O)[C@H](CCC(N)=O)NC(=O)[C@@H](NC(=O)[C@H](Cc1cnc[nH]1)NC(=O)[C@H](CCCN=C(N)N)NC(=O)[C@H](CCCCN)NC(=O)[C@@H](N)Cc1ccccc1)C(C)C)C(=O)N[C@@H](CCCCN)C(=O)N[C@@H](CC(=O)O)C(=O)N[C@@H](Cc1ccccc1)C(=O)N[C@@H](CC(C)C)C(=O)N[C@@H](CCCN=C(N)N)C(=O)O` [FKRHVQRIKDFLR]: the minimal inhibitory concentration (MIC) in assay [1] is 10 µM (≈ 17.4 µg/mL); in assay [2] it was more than 40 µM.

Turning to `CC(C)C[C@H](NC(=O)[C@H](CCCCN)NC(=O)[C@H](CC(C)C)NC(=O)[C@H](CC(C)C)NC(=O)[C@H](CCCCN)NC(=O)[C@H](CCCCN)NC(=O)[C@H](CC(C)C)NC(=O)[C@H](CC(C)C)NC(=O)[C@H](CCCCN)NC(=O)[C@H](CC(C)C)NC(=O)[C@H](CC(C)C)NC(=O)[C@H](CCCCN)NC(=O)[C@H](CCCCN)NC(=O)[C@H](C)N)C(=O)N[C@@H](C)C(=O)NCC(=O)O` [AKKLLKLLKKLLKLAG], the figures for the MIC in assay [1] and in assay [2] were 5 µM (≈ 8.89 µg/mL) and 10 µM (≈ 17.8 µg/mL), respectively.

Regarding `NCC(=O)N[C@@H](CCCN=C(N)N)C(=O)N[C@@H](CCCN=C(N)N)C(=O)N1CCC[C@H]1C(=O)N[C@@H](CCCN=C(N)N)C(=O)N1CCC[C@H]1C(=O)N[C@@H](CCCN=C(N)N)C(=O)N1CCC[C@H]1C(=O)N[C@@H](CCCN=C(N)N)C(=O)N1CCC[C@H]1C(=O)N[C@@H](Cc1c[nH]c2ccccc12)C(=O)N[C@@H](Cc1c[nH]c2ccccc12)C(=O)N[C@@H](Cc1c[nH]c2ccccc12)C(=O)N[C@@H](Cc1c[nH]c2ccccc12)C(=O)N[C@@H](Cc1c[nH]c2ccccc12)C(=O)O` [GRRPRPRPRPWWWWW], the minimal inhibitory concentration (MIC) in assay [1] was 5 µM (≈ 10.9 µg/mL); in assay [3] it was 20 µM (≈ 43.5 µg/mL); in assay [2], 20 µM (≈ 43.5 µg/mL).

Take `CSCC[C@H](NC(=O)[C@H](CCCN=C(N)N)NC(=O)[C@H](Cc1c[nH]c2ccccc12)NC(=O)[C@H](C)NC(=O)[C@H](Cc1c[nH]c2ccccc12)NC(=O)[C@H](CCCN=C(N)N)NC(=O)[C@H](CCCN=C(N)N)NC(=O)[C@H](C)NC(=O)[C@H](CCCCN)NC(=O)[C@@H](N)Cc1ccccc1)C(=O)N[C@@H](CCCCN)C(=O)O` [FKARRWAWRMK]: the results for the MIC in assay [1], in assay [3] and in assay [4] were 32.6 µM (≈ 50 µg/mL), 130 µM (≈ 200 µg/mL) and 32.6 µM (≈ 50 µg/mL), respectively.

In the case of `CC(C)[C@H](NC(=O)[C@H](CC(=O)O)NC(=O)[C@H](CO)NC(=O)[C@H](CCCCN)NC(=O)CNC(=O)[C@H](CO)NC(=O)[C@H](CO)NC(=O)[C@H](Cc1cnc[nH]1)NC(=O)[C@@H](N)CCC(N)=O)C(=O)N[C@@H](CCCN=C(N)N)C(=O)N[C@@H](CCCN=C(N)N)C(=O)N[C@@H](Cc1c[nH]c2ccccc12)C(N)=O` [QHSSGKSDVRRW], the MIC in assay [1], in assay [3] and in assay [4] was more than 100 µM throughout.

`CC(C)C[C@H](NC(=O)[C@H](CC(C)C)NC(=O)[C@H](CCCN=C(N)N)NC(=O)[C@H](CC(C)C)NC(=O)[C@H](CC(C)C)NC(=O)[C@H](CCCN=C(N)N)NC(=O)[C@H](CCCN=C(N)N)NC(=O)[C@H](CC(C)C)NC(=O)[C@H](CC(C)C)NC(=O)[C@H](CCCN=C(N)N)NC(=O)[C@H](CC(C)C)NC(=O)[C@H](CC(C)C)NC(=O)[C@H](CCCN=C(N)N)NC(=O)[C@H](CC(C)C)NC(=O)[C@H](CCCN=C(N)N)NC(=O)[C@H](CC(C)C)NC(=O)[C@H](CCCN=C(N)N)NC(=O)[C@H](CCCN=C(N)N)NC(=O)[C@@H](N)CC(C)C)C(=O)O` [LRRLRLRLLRLLRRLLRLL]: in assay [3], the MIC was more than 128 µM.

For `CC[C@H](C)[C@H](NC(=O)CN)C(=O)NCC(=O)N[C@@H](CCCCN)C(=O)N[C@@H](Cc1ccccc1)C(=O)N[C@@H](CC(C)C)C(=O)N[C@@H](Cc1cnc[nH]1)C(=O)N[C@@H](CCCCN)C(=O)N[C@H](C(=O)N[C@@H](CCCCN)C(=O)N[C@@H](CO)C(=O)N[C@@H](Cc1ccccc1)C(=O)NCC(=O)N[C@@H](CCCCN)C(=O)N[C@@H](CO)C(=O)N[C@@H](Cc1c[nH]c2ccccc12)C(=O)N[C@H](C(=O)NCC(=O)N[C@@H](CCC(=O)O)C(=O)N[C@H](C(=O)N[C@@H](CCSC)C(=O)N[C@@H](CC(N)=O)C(=O)N[C@@H](CO)C(N)=O)[C@@H](C)CC)[C@@H](C)CC)C(C)C` [GIGKFLHKVKSFGKSWIGEIMNS], the minimal inhibitory concentration (MIC) in assay [1] was found to be 19 µM (≈ 48.7 µg/mL); in assay [3], 19 µM (≈ 48.7 µg/mL); in assay [2] it was 76 µM (≈ 195 µg/mL).

On to `CC[C@H](C)[C@H](NC(=O)[C@@H](N)Cc1ccc(O)cc1)C(=O)N[C@@H](CCCCN)C(=O)N[C@@H](CC(C)C)C(=O)N[C@@H](CC(C)C)C(=O)N[C@@H](CCCCN)C(=O)N[C@@H](CCC(=O)O)C(N)=O` [YIKLLKE], for which the MIC in assay [1] and in assay [3] was more than 100 µM throughout.

In assay [2], `CC[C@H](C)[C@H](NC(=O)CNC(=O)[C@H](CCCCN)NC(=O)[C@H](CCCCN)NC(=O)[C@H](CCCCN)NC(=O)[C@@H](N)CCCCN)C(=O)NCC(=O)N[C@@H](CCCCN)C(=O)N[C@@H](Cc1ccccc1)C(=O)N[C@@H](CC(C)C)C(=O)N[C@@H](Cc1cnc[nH]1)C(=O)N[C@@H](CO)C(=O)N[C@@H](C)C(=O)N[C@@H](CCCCN)C(=O)N[C@@H](CCCCN)C(=O)N[C@@H](Cc1ccccc1)C(=O)NCC(=O)N[C@@H](CCCCN)C(=O)N[C@@H](C)C(=O)N[C@@H](Cc1ccccc1)C(=O)N[C@H](C(=O)NCC(=O)N[C@@H](CCC(=O)O)C(=O)N[C@H](C(=O)N[C@@H](CCSC)C(=O)N[C@@H](CC(N)=O)C(=O)N[C@@H](CO)C(=O)O)[C@@H](C)CC)C(C)C` [KKKKGIGKFLHSAKKFGKAFVGEIMNS] yielded a minimum inhibitory concentration (MIC) of more than 33.6 µM.

In turn, `CC[C@H](C)[C@H](NC(=O)[C@H](Cc1c[nH]c2ccccc12)NC(=O)[C@H](CCCCN)NC(=O)[C@@H]1CCCN1C(=O)[C@H](CC(C)C)NC(=O)[C@H](CCCCN)NC(=O)CNC(=O)[C@@H](NC(=O)[C@@H](NC(=O)[C@H](CO)NC(=O)[C@@H](NC(=O)[C@@H](NC(=O)[C@H](CCCCN)NC(=O)[C@H](CCC(N)=O)NC(=O)[C@H](C)N)[C@@H](C)CC)[C@@H](C)CC)[C@@H](C)O)[C@@H](C)CC)C(=O)N[C@H](C(=O)N[C@@H](CCCCN)C(=O)N[C@H](C(=O)N[C@H](C(=O)N[C@@H](CC(N)=O)C(=O)N[C@@H](CCCCN)C(=O)N[C@@H](Cc1ccccc1)C(=O)N[C@H](C(=O)N[C@@H](CCCCN)C(=O)N[C@@H](CCCCN)C(=O)O)[C@@H](C)O)C(C)C)[C@@H](C)O)[C@@H](C)CC` [AQKIISTIGKLPKWIIKTVNKFTKK] had an MIC in the assay on Escherichia coli of 2.5 µM (≈ 7.21 µg/mL).

`CC[C@H](C)[C@H](NC(=O)[C@H](CCCN=C(N)N)NC(=O)[C@H](CCC(N)=O)NC(=O)[C@@H](NC(=O)[C@@H](NC(=O)[C@H](CCCN=C(N)N)NC(=O)[C@H](CCCCN)NC(=O)[C@@H](N)Cc1ccccc1)[C@@H](C)CC)C(C)C)C(=O)N[C@@H](CCCCN)C(=O)N[C@@H](CC(=O)O)C(=O)N[C@@H](Cc1ccccc1)C(=O)N[C@@H](C)C(=O)N[C@@H](CCCN=C(N)N)C(=O)O` [FKRIVQRIKDFAR]: the minimum inhibitory concentration (MIC) in assay [1] is 10 µM (≈ 16.8 µg/mL); in assay [2], more than 40 µM.

Regarding `CC(=O)N[C@@H](CCCCN)C(=O)N[C@@H](CC(C)C)C(=O)N[C@@H](CC(C)C)C(=O)N[C@@H](CCCCN)C(=O)N[C@@H](CC(C)C)C(=O)N[C@@H](CC(C)C)C(=O)N[C@@H](CCCCN)C(=O)N1CCC[C@H]1C(=O)N[C@@H](CC(C)C)C(=O)N[C@@H](CC(C)C)C(=O)N[C@@H](CCCCN)C(=O)N[C@@H](CC(C)C)C(=O)N[C@@H](CC(C)C)C(=O)N[C@@H](CCCCN)C(N)=O` [KLLKLLKPLLKLLK], the minimal inhibitory concentration (MIC) in assay [1] was 10 µM (≈ 17 µg/mL); in assay [2], 3.54 µM (≈ 6.02 µg/mL).

Consider `NC(=O)[C@H](CCCN=C(N)N)NC(=O)[C@H](Cc1c[nH]c2ccccc12)NC(=O)[C@H](Cc1c[nH]c2ccccc12)NC(=O)[C@H](CCCN=C(N)N)NC(=O)[C@H](Cc1c[nH]c2ccccc12)NC(=O)[C@H](Cc1c[nH]c2ccccc12)NC(=O)[C@@H](N)CCCN=C(N)N` [RWWRWWR], for which the values for the minimal inhibitory concentration (MIC) in assay [1], in assay [3] and in assay [4] were 8.12 µM (≈ 9.99 µg/mL), 6.09 µM (≈ 7.49 µg/mL) and 2.03 µM (≈ 2.5 µg/mL), respectively.

`CC(C)C[C@H](NC(=O)[C@H](CCCN=C(N)N)NC(=O)CNC(=O)CNC(=O)[C@@H](N)CCCN=C(N)N)C(=O)N[C@H]1CSSC[C@@H](C(=O)N[C@H](C(=O)O)[C@@H](C)O)NC(=O)[C@H](C(C)C)NC(=O)[C@@H]2CSSC[C@H](NC(=O)[C@H](Cc3ccc(O)cc3)NC1=O)C(=O)N[C@@H](CCCN=C(N)N)C(=O)N[C@@H](CCCN=C(N)N)C(=O)N[C@@H](CCCN=C(N)N)C(=O)N[C@@H](Cc1ccccc1)C(=O)N2` [RGGRLCYCRRRFCVCT] showed an MIC in the assay with Escherichia coli of 0.359 µM (≈ 0.699 µg/mL).

As for `CC[C@H](C)[C@H](NC(=O)CNC(=O)[C@H](CC(C)C)NC(=O)[C@@H](NC(=O)[C@@H]1CCCN1C(=O)[C@H](CC(N)=O)NC(=O)[C@H](CC(C)C)NC(=O)[C@H](CC(C)C)NC(=O)CNC(=O)[C@H](CC(N)=O)NC(=O)[C@H](CC(C)C)NC(=O)[C@H](CC(C)C)NC(=O)[C@@H](N)CC(=O)O)C(C)C)C(=O)N[C@@H](C)C(=O)N[C@@H](CC(N)=O)C(=O)NCC(=O)N[C@@H](CC(C)C)C(=O)N[C@H](C(=O)NCC(=O)NCC(=O)N[C@@H](CC(C)C)C(=O)N[C@H](C(=O)N[C@@H](CCCCN)C(=O)N[C@@H](CCCCN)C(N)=O)C(C)C)[C@@H](C)O` [DLLNGLLNPVLGIANGLTGGLVKK], the minimum inhibitory concentration (MIC) in assay [1] and in assay [2] was more than 293 µM each time.

For `CC[C@H](C)[C@H](NC(=O)[C@H](Cc1ccc(O)cc1)NC(=O)[C@H](CCC(N)=O)NC(=O)[C@H](CC(C)C)NC(=O)[C@H](C)NC(=O)[C@H](CCCCN)NC(=O)[C@H](CCCCN)NC(=O)[C@H](CCSC)NC(=O)[C@H](CCCCN)NC(=O)[C@@H](N)CCCCN)C(=O)N[C@@H](CCCCN)C(=O)N[C@@H](CC(C)C)C(N)=O` [KKMKKALQYIKL], the MIC in assay [1] and in assay [3] was more than 100 µM each time.

On to `CC[C@H](C)[C@H](NC(=O)[C@H](CCCCN)NC(=O)[C@H](CCCCN)NC(=O)[C@@H](N)CCC(N)=O)C(=O)N[C@@H](C)C(=O)N[C@H](C(=O)N[C@@H](CCCN=C(N)N)C(=O)N[C@@H](CC(C)C)C(=O)N[C@@H](CO)C(=O)N[C@@H](C)C(=O)O)C(C)C` [QKKIAVRLSA], for which the figures for the MIC in assay [1], in assay [3] and in assay [2] were 28.7 µM (≈ 32 µg/mL), 7.19 µM (≈ 8 µg/mL) and more than 57.5 µM, respectively.
